Results reported in PMC11079024, “Identification of a family of species-selective complex I inhibitors as potential anthelmintics” (Nature Communications, 2024).
Several values for one entry are separate records, joined by “and”; a condition that tells them apart may be missing. Identical values can stand only once. Like-named read-outs stand apart in the source and are kept apart here.

Legend:
[1] = test system: adult H. polygyrus; assay: microbe, parasite or virus in culture; type: cell-based, Heligmosomoides polygyrus; details: anaerobic, 24 hours after treatment; for killing at 10 µM: Heligmosomoides polygyrus, 24 h, adult H. polygyrus, affected = score equal to or lower than 1.5, read-out: Percent Worms Affected; for # of Worms Affected: worms with score equal to or lower than 1.5
Description: To investigate the impact of the eleven benzimidazole derivatives under anaerobic conditions, an anaerobic chamber with an integrated incubator (Coy Laboratory Products, USA) was used. The same procedure was followed as described for the aerobic drug screening in adult H. polygyrus, but the incubation took place within the anaerobic chamber (37 °C, 85% N2, 10% CO2, 5% H2). Benzimidazole derivatives were tested at a concentration of 10 µM. For scoring, the plates had to be removed from the anaerobic chamber. The whole experiment was performed two times i.e., two independent biological replicates.
The activities of eleven benzimidazole derivatives were tested against adult H. polygyrus viability in vitro under aerobic (+, white boxplots) and anaerobic (–, coloured boxplots) conditions (see Methods). After 24-hour chemical treatment, worm viability was manually scored by an examiner using a scale from 0 (dead) to 3 (motile); DMSO was used as a negative control in both aerobic and anaerobic conditions; levamisole was used as a positive control in anaerobic conditions. The percentage of affected worms (i.e., worms with a score equal to or lower than 1.5) in each biological replicate is shown; data are from two biological replicates. Within each boxplot, black horizontal lines denote group medians, boxes span from the 25th to the 75th percentile of each group’s distribution, and whiskers extend to the maximum and minimum values. […]

[2] = test system: C. elegans complex IV (cytochrome C oxidase); assay: In vitro complex IV activity assay, C. elegans mitochondria; type: biochemical, Caenorhabditis elegans; details: for % Activity Complex IV: 100 µM compound, relative to solvent control, mean (SEM); for CIV Activity: 100 μM inhibitor, in vitro activity relative to solvent control, N2 C. elegans mitochondria; for Percent in vitro activity, Complex IV (single replicate Rep1-Rep4) / Percent in vitro activity, Complex IV (Mean): 100 μM of NPD compound, C. elegans mitochondria; for Percent in vitro activity, Complex IV (single replicate Rep1-Rep4): individual biological replicates; for Percent in vitro activity, Complex IV (Mean): mean of four biological replicates
Method in brief: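 Cytochrome C oxidase activity read spectrophotometrically at 550 nm (30 s intervals, 15 min) as oxidation of freshly DTT-reduced CytC. Mitochondria (0.2 mg/mL) came from adult worms of six C. elegans strains grown at 20 °C. Rates were taken from initial linear phase and normalised to solvent-control wells.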

| SMILES | killing at 10 µM ([1]; replicate 1) [%] | killing at 10 µM ([1]; replicate 2) [%] | # of Worms Affected ([1]; replicate 1) | # of Worms Affected ([1]; replicate 2) | % Activity Complex IV [2] | CIV Activity ([2]; Mean) [%] | CIV Activity ([2]; single replicate) | Percent in vitro activity, Complex IV (single replicate Rep1-Rep4) [2] | Percent in vitro activity, Complex IV (Mean) [2] [%] | Worm viability score, individual worms (Worm1-Worm20) ([1]; replicate 2, scale from 0 (dead) to 3 (motile)) |
| --- | --- | --- | --- | --- | --- | --- | --- | --- | --- | --- |
| Clc1ccc(SCCCCn2cnc3ccccc32)cc1 [Compound 7925515] | 100 | 83 | 5 | 5 | – | – | – | – | – | – |
| Cc1nc2ccccc2n1Cc1ccc(Cl)cc1 [STK697993] | 100 | 33 | 7 | 2 | – | – | – | – | – | – |
| C=C(C)[C@H]1Cc2c(ccc3c2O[C@@H]2COc4cc(OC)c(OC)cc4[C@@H]2C3=O)O1 [Rotenone, reference compound] | – | – | – | – | 99.57 (1.12) % | 99.566 | 94.435% and 102.333% and 104.163% and 97.333% | 102.333% and 104.163% and 97.333% and 94.435% | 99.566 | – |
| COc1cc2c(cc1OC)C(c1ccc(-c3ccc(Cl)c(Cl)c3)o1)=NCC2 [NPD3577] | – | – | – | – | 81.06 (2.34) % | – | – | 78.287% and 81.122% and 71.227% and 93.621% | 81.064 | – |
| Cc1ccccc1OCCCCn1cnc2ccccc21 [Compound 7732524] | 60 | 0 | 3 | 0 | – | – | – | – | – | – |
| CCn1c(C(C)c2ccc(CC(C)C)cc2)nc2ccccc21 (stereo not shown) [STK951902] | 100 | 67 | 6 | 4 | – | – | – | – | – | – |
| Clc1ccccc1OCCCCn1cnc2ccccc21 [Compound 7925804] | 50 | – | 3 | 6 | – | – | – | – | – | 2 (3×) and 1.5 (2×) and 1 |
| O=C(NCCc1ccc(Cl)cc1)c1ccccc1C(F)(F)F [Wact-11] | – | – | – | – | 89.00 (0.63) % | 88.998 | 91.037% and 86.647% and 91.305% and 87.004% | 91.037% and 86.647% and 91.305% and 87.004% | 88.998 | – |
| Cc1nc2ccccc2n1Cc1ccccc1Cl [Compound 6707368] | 100 | 33 | 6 | 2 | – | – | – | – | – | – |
| Cc1nc2ccccc2n1Cc1ccc(Br)cc1 [Compound 5567167] | 50 | 67 | 3 | 4 | – | – | – | – | – | – |
| CC(C)Cc1ccc(C(C)c2nc3ccccc3n2C(C)C)cc1 (stereo not shown) [STK951903] | 67 | 83 | 4 | 5 | – | – | – | – | – | – |
| Clc1ccc(Cn2cnc3ccccc32)c(Cl)c1 [Compound 6750659] | 50 | 67 | 3 | 4 | – | – | – | – | – | – |
| CC(C)Cc1ccc(C(C)c2nc3ccccc3n2C)cc1 (stereo not shown) [NPD8790] | – | – | – | – | 79.84 (1.34) % | – | – | 83.143% and 80.952% and 83.287% and 71.964% | 79.837 | – |
| COc1cc2c(cc1OC)C(/C=C/c1ccc(N(C)C)cc1)=NCC2 [NPD6303] | – | – | – | – | 83.07 (1.76) % | – | – | 86.689% and 90.588% and 80.321% and 74.685% | 83.071 | – |
| COc1cc2c(cc1OC)C(C(C)c1ccc(CC(C)C)cc1)=NCC2 (stereo not shown) [NPD10504] | – | – | – | – | 74.57 (1.35) % | – | – | 71.688% and 71.402% and 72.596% and 82.587% | 74.568 | – |
